# From patent US20050090529A1, “3,5 Disubstituted indazole compounds with nitrogen-bearing 5-membered heterocycles, pharmaceutical compositions, and methods for mediating or inhibiting cell proliferation” (PFIZER INC, priority 2003, published 2005)
# System: Cyclin-dependent kinase
# Assay: Cyclin-dependent kinase inhibition, % inhibition at 10 nM (library Examples 99-270)
# Format: biochemical
# Conditions: 10 nM compound
# Description: Cyclin-dependent kinase activity was measured by quantifying the enzyme-catalyzed, time-dependent incorporation of radioactive phosphate from [^32P]ATP or [^33P]ATP into a protein substrate. Unless noted otherwise, assays were performed in 96-well plates in a total volume of 50 μL, in the presence of 10 mM HEPES (N-[2-hydroxyethyl]piperazine-N′-[2-ethanesulfonic acid]) (pH 7.4), 10 mM MgCl2, 25 μM adenosine triphosphate (ATP), 1 mg/mL ovalbumin, 5 μg/mL leupeptin, 1 mM dithiothreitol, 10 mM beta-glycerophosphate, 0.1 mM sodium vanadate, 1 mM sodium fluoride, 2.5 mM ethylene glycol-bis(β-aminoethyl ethKer)-N,N,N′N′-tetraacetic acid (EGTA), 2% (v/v) dimethylsulfoxide, and 0.03-0.4 μCi [^32/33P]ATP per reaction. Reactions were initiated with enzyme, incubated at 30° C., and terminated after 20 minutes by the addition of ethylenediaminetetraacetic acid (EDTA) to 250 mM. The phosphorylated substrate was then captured on a nitrocellulose or phosphocellulose membrane using a 96-well filtration manifold, and unincorporated radioactivity was removed by repeated washing with 0.85% phosphoric acid. Radioactivity was quantified by exposing the dried membranes to a phosphorimager.
# Results of assays performed on compounds, which include the specific examples described above are provided in Examples 99-274 above, and in Table 1 below. Unless indicated otherwise in a particular entry, the units and assays used are as indicated in the applicable column of the table.
row,SMILES,% Inhib @ 10 nM
1,CCNCc1cncc(-c2ccc3[nH]nc(-c4ncc(C(=O)N5CCN(c6cnccn6)CC5)[nH]4)c3c2)c1C [Example 145],58%
2,CCNCc1cncc(-c2ccc3[nH]nc(-c4ncc(C(=O)N5CCN(Cc6ccccc6)CC5)[nH]4)c3c2)c1C [Example 117],72%
3,"CCNCc1cncc(-c2ccc3[nH]nc(-c4ncc(C(=O)NCCN5CCOCC5)[nH]4)c3c2)c1C [Example 103, 2-(5-{5-[(ethylamino)methyl]-4-methylpyridin-3-yl}-1H-indazol-3-yl)-N-(2-morpholin-4-ylethyl)-1H-imidazole-5-carboxamide]",40%
4,"CCNCc1cncc(-c2ccc3[nH]nc(-c4ncc(C(=O)N5CCC(CNC(=O)C(F)(F)F)CC5)[nH]4)c3c2)c1C [Example 170, N-[(1-{[2-(5-{5-[(ethylamino)methyl]-4-methylpyridin-3yl}-1H-indazol-3-yl)-1H-imidazol-5-yl]carbonyl}piperidin-4-yl)methyl]-2,2,2-trifluoroacetamide]",29%
5,"CCNCc1cncc(-c2ccc3[nH]nc(-c4ncc(C(=O)N(CCN(C)C)Cc5ccccc5)[nH]4)c3c2)c1C [Example 123, N-benzyl-N-[2-(dimethylamino)ethyl]-2-(5-{5-[(ethylamino)methyl]-4-methylpyridin-3-yl}-1H-indazol-3-yl)-1H-imidazale-5-carboxamide]",54%
6,"CCNCc1cncc(-c2ccc3[nH]nc(-c4ncc(C(=O)N(CC#N)Cc5ccccc5)[nH]4)c3c2)c1C [Example 213, N-benzyl-N-(cyanomethyl)-2-(5-{5-[(ethylamino)methyl]-4-methylpyridin-3-yl}-1H-indazol-3-yl)-1H-imidazale-5-carboxamide]",68%
7,CCNCc1cncc(-c2ccc3[nH]nc(-c4ncc(C(=O)N5CCN(C(C)=O)CC5)[nH]4)c3c2)c1C [Example 116],66%
8,"CCNCc1cncc(-c2ccc3[nH]nc(-c4ncc(C(=O)NCCCn5ccnc5)[nH]4)c3c2)c1C [Example 99, 2-(5-{5-[(ethylamino)methy]-4-methylpyridin-3-yl}-1H-indazol-3-yl)-N-[3-(1H-imidazol-1-yL)propyl]-1H-imidazole-5-carboxamide]",39%
9,"CCNCc1cncc(-c2ccc3[nH]nc(-c4ncc(C(=O)N(CCO)C5CCCCC5)[nH]4)c3c2)c1C [Example 245, N-cyclohexyl-2-(5-{5-[(ethylamino)methyl]-4-methylpyridin-3-yl}-1H-indazol-3-yl)-N-(2-hydroxyethyl)-1H-imidazole-5-carboxamide]",30%
10,"CCNCc1cncc(-c2ccc3[nH]nc(-c4ncc(C(=O)NCCc5nnc(CC(C)C)o5)[nH]4)c3c2)c1C [Example 270, 2-(5-{5-[(ethylamino)methyl]-4-methylpyridin-3-yl}-1H-indazol-3-yl)-N-[2-(5-isobutyl-1,3,4-oxadiazol-2-yl)ethyl]-1H-imidazole-5-carboxamide]",27%
11,"CCNCc1cncc(-c2ccc3[nH]nc(-c4ncc(C(=O)NCCSCc5ccc(CN(C)C)o5)[nH]4)c3c2)c1C [Example 155, N-{2-[({5-[(dimethylamino)methyl]-2-furyl}methyl)thio]ethyl}-2-(5-{5-[(ethylamino)methyl]-4-methylpyridin-3-yl}-1H-indazol-3-yl)-1H-imidazoie-5-carboxamide]",37%
12,"CCNCc1cncc(-c2ccc3[nH]nc(-c4ncc(C(=O)N(CCO)Cc5ccccc5)[nH]4)c3c2)c1C [Example 124, N-benzyl-2-(5-{5-[(ethylamino)methyl]-4-methylpyridin-3-yl}-1H-indazol-3-yl)-N-(2-hydroxyethyl)-1H-imidazole-5-carboxamide]",56%
13,"CCNCc1cncc(-c2ccc3[nH]nc(-c4ncc(C(=O)N5CCc6cc(OC)c(OC)cc6C5)[nH]4)c3c2)c1C [Example 121, {[5-(3-{5-[(6,7-dimethoxy-3,4-dihydroisoquinolin-2(1H)-yl)carbonyl}-1H-imidazol-2-yl}-1H-indazol-5-yl)-4-methylpyridin-3-yl]methyl)ethylamine]",69%
14,"CCNCc1cncc(-c2ccc3[nH]nc(-c4ncc(C(=O)N5CCC(O)(c6ccccc6)CC5)[nH]4)c3c2)c1C [Example 112, 1-{[2-(5-{5-[(ethylamino)methyl]-4-methylpyridin-3-yl}-1H-indazol-3-yl)-1H-imidazol-5-yl]carbonyl}-4-phenylpiperidin-4-ol]",80%
15,"CCNCc1cncc(-c2ccc3[nH]nc(-c4ncc(C(=O)N5CCC(O)(CN6CCOCC6)CC5)[nH]4)c3c2)c1C [Example 266, 1-{[2-(5-{5-[(ethylamino)methyl]-4-methylpyridin-3-yl}-1H-indazol-3-yl)-1H-imidazol-5-yl]carbonyl}-4-(morpholin-4-ylmethyl)piperidin-4-ol]",18%
16,CCNCc1cncc(-c2ccc3[nH]nc(-c4ncc(C(=O)NCc5ccc(F)c(C(F)(F)F)c5)[nH]4)c3c2)c1C [Example 148],60%
17,"CCNCc1cncc(-c2ccc3[nH]nc(-c4ncc(C(=O)N5CCc6nc(C)sc6C5)[nH]4)c3c2)c1C [Example 234, ethyl{[4-methyl-5-(3-{5-[(2-methyl-6,7-dihydro[1,3]thiazolo[5,4-c]pyridin-5-(4H)-yl)carbonyl]-1H-imidazol-2-yl)-1H-indazol-5-yl)pyridin-3-yl]methyl}amine]",74%
18,CCNCc1cncc(-c2ccc3[nH]nc(-c4ncc(C(=O)NCC5(N(C)C)CCOCC5)[nH]4)c3c2)c1C [Example 210],35%
19,"CCNCc1cncc(-c2ccc3[nH]nc(-c4ncc(C(=O)N5CCC(Oc6ccccc6)CC5)[nH]4)c3c2)c1C [Example 196, ethyl{[4-methyl-5-(3-{5-[(4-phenoxypiperidin-1-yl)carbonyl]-1H-imidazol-2-yl]-1H-indazol-5-yl)pyridin-3-yl]methyl}amine]",71%
20,"CCNCc1cncc(-c2ccc3[nH]nc(-c4ncc(C(=O)NCCC5CCC(=O)N5Cc5ccccc5)[nH]4)c3c2)c1C (stereo not shown) [Example 253, N-[2-(1-benzyl-5-oxopyrrolidin-2-yl)ethyl]-2-(5-{5-[(ethylamina)methyl]-4-methylpyridin-3-yl}-1H-indazol-3-yl)-1H-imidazole-5-carboxamide]",18%
21,CCNCc1cncc(-c2ccc3[nH]nc(-c4ncc(C(=O)NCc5cccnc5)[nH]4)c3c2)c1C [Example 101],54%
22,CCNCc1cncc(-c2ccc3[nH]nc(-c4ncc(C(=O)N5C[C@@H]6[C@@H](N)[C@@H]6C5)[nH]4)c3c2)c1C [Example 193],52%
23,CCNCc1cncc(-c2ccc3[nH]nc(-c4ncc(C(=O)NC(CO)c5cccnc5)[nH]4)c3c2)c1C (stereo not shown) [Example 244],55%
24,"CCNCc1cncc(-c2ccc3[nH]nc(-c4ncc(C(=O)N5CCc6ncsc6C5)[nH]4)c3c2)c1C [Example 217, [(5-{3-[5-(6,7-dihydro[1,3]thiazolo[5,4-c]pyridin-5(4H)-ylcarbonyl)-1H-imidazol-2-yl]-1H-indazol-5-yl}-4-methylpyridin-3-yl)methyl]ethylamine]",79%
25,"CCNCc1cncc(-c2ccc3[nH]nc(-c4ncc(C(=O)N5CCC(C(=O)c6ccccc6)CC5)[nH]4)c3c2)c1C [Example 171, (1-{[2-(5-{5[(ethylamino)methyl]-4-methylpyridin-3-yl}-1H-indazol-3-yl)-1H-imidazol-5-yl]carbonyl}piperidin-4-yl)(phenyl)methanone]",65%
